Publication PMC11335392, “Characterization of an Estrogen Receptor α-Selective ^18 F-Estradiol PET Tracer” (World Journal of Nuclear Medicine, 2024)

Target: T1, estrogen receptor α (ERα) (Homo sapiens, UniProt P03372)
T1 construct: gene ESR1; full-length human ESR1 (ERα), transiently expressed in HEK293T cells
T1 sequence (P03372 1-595): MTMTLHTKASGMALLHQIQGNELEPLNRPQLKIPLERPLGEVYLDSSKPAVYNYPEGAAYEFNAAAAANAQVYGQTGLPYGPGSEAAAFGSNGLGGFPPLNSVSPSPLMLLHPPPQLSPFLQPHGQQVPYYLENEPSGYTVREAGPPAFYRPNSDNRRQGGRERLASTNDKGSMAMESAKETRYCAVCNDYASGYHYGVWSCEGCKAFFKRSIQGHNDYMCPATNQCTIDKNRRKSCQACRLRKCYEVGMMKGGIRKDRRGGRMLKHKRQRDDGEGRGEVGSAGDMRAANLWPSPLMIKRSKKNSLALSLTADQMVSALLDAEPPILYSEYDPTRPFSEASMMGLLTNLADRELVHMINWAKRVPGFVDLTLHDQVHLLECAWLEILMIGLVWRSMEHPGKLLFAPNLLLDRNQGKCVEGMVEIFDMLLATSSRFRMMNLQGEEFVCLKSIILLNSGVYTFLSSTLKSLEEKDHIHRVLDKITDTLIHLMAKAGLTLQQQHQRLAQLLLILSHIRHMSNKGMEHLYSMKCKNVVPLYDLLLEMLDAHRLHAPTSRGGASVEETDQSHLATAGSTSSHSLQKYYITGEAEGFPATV
Test: radioligand saturation binding with Scatchard analysis in ERα-transfected HEK293T cells
Type: cell-based

Q: Which Kd does the source give for `C[C@]12CC[C@@H]3c4ccc(O)cc4CC[C@H]3[C@@H]1C[C@@H](F)[C@@H]2O` [[18F]FES, 16α-[18F]fluoro-17β-estradiol] here?
A: 94 nM
